From US20070093460A1, “Methods of using selective 11beta-HSD inhibitors to treat gluocorticoid associated states” (priority 2005, published 2007)
pIC50: −log10 of the molar value. “Also recorded” adds a separate entry of the source. Read-outs that look alike come from different tables or passages of the source.

Columns and labels:
[1] = molecular target: T1, 11β-HSD2 (Ovis aries, UniProt P50168); test: 11β-HSD2 enzyme activity in sheep kidney microsomes; type: biochemical; settings: for inhibitors of 11β-HSD2 (summary in words): summary of the screening
T1 construct: incubating sheep kidney microsomal fraction (6.5 μg protein) with 50 nM corticosterone; from tissue; host or cells: sheep kidney microsomal fraction
T1 sequence (P50168 1-427): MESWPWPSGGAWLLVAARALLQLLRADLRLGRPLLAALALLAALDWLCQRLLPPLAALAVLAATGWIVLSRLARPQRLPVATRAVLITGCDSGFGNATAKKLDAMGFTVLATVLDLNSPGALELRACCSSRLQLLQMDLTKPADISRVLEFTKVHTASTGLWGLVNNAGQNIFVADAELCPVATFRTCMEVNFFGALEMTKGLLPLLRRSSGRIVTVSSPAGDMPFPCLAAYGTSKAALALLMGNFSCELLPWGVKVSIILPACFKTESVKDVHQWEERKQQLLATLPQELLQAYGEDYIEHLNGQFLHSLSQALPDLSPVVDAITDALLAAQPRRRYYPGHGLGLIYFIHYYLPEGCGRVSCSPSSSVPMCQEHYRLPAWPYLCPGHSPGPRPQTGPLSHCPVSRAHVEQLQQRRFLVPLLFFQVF
Excerpt: The enzymatic reaction was termninated by addition of methanol and synthesis of 11-dehydro-corticosterone was quantitated by HPLC as described above.

[2] = molecular target: T2, 11β-HSD1 Reductase (Rattus norvegicus, UniProt P16232); test: Table 1: inhibition of 11β-HSD1 reductase; type: biochemical; settings: Table 1, inhibition in words
[3] = molecular target: T3, 11β-HSD1 Dehydrogenase (Rattus norvegicus, UniProt P16232); test: Table 1: inhibition of 11β-HSD1 dehydrogenase; type: biochemical; settings: Table 1, inhibition in words
[4] = molecular target: T4, 11β-HSD2 Dehydrogenase (Ovis aries, UniProt P50168); test: Table 1: inhibition of 11β-HSD2 dehydrogenase; type: biochemical; settings: Table 1, inhibition in words
T4 sequence (P50168 1-427): T1 sequence (P50168 1-427)

[5] = test system: rat aortic rings; test: Contractile response of rat aortic rings to phenylephrine; type: cell-based; settings: for amplification of the contractile response to phenylephrine by the steroid: rings incubated 24 h with steroid (corticosterone 10 nmol/L; 11-dehydro-corticosterone 100 nmol/L)
Method: Male Sprague-Dawley (150-200 g) rats were anesthetized with pentobarbital (50 mg/kg IP), and a median sternotomy was performed followed by the rapid removal of the thoracic aorta. The adventitia was removed, but the endothelium was left intact. The aorta was cut into 2-3 mm rings and individual rings were placed into a single well of a twenty four well culture plate and incubated at 37° C. under 95% 02-5% CO2. Each well contained 1 mL of DMEM/F12 containing 1% fetal bovine serum, streptomycin (100 μg/ml), penicillin (100 units/ml) and amphotericin (0.25 μg/ml). Aortic rings were incubated for 24 hours prior to contractility measurements with the following combinations of steroids, and antisense/nonsense oligonucleotides (3 μmol/L):
Antisense phosphorothioate oligonucleotides, targeted to block either 11β-HSD2 or 11β-HSD1 gene expression, were obtained from Research Genetics, Huntsville Ala. Antisense oligomers complementary to 20 bp sequences spanning the ribosome binding/translation start site were used. Oligomer sequences were: 5′-CATAACTGCCGTCCAACAGC-3′ (SEQ ID NO. 1) for 11β-HSD1 Antisense and 5′-AGGCCAGCGCTCCATGACTT-3′ (SEQ ID NO 2) for 11β-HSD2 antisense. In control experiments the corresponding sense sequence was used as the nonsense oligomer. Antisense and nonsense oligomers were added directly to each well at 20 μg/10:1 sterile H2O per well for a final concentration of 3 μmol/L.
For contraction measurements, aortic rings were suspended by tungsten wires with 1 g of tension and placed in a vessel bath containing serum free DMEM/F12 media at 37° C. aerated with 95% O2-5% CO2, at pH 7.4. Vessels were equilibrated for 20 minutes and then tested with phenylephrine (1 nmol/L-10 μmol/L). Although phenylephrine is structurally not a catecholamine, it is considered to be a functional catecholamine as it activates both a and P adrenoceptors. Due to its favorable stability characteristics, it is widely used as a catecholamine substitute in experiments of this nature. The intensity of contraction was assessed by use of a Narishige micromanipulator and model FT03 force transducer (Grass Instrument Co. West Warwick, R.I.). Measurements were recorded on computer using the Labview 4.1 Virtual Instrument System (National Instruments, Austin, Tex.).

[6] = molecular target: T5, 11β-HSD1-reductase activity (Rattus norvegicus, UniProt P16232); test: Metabolism of 3H-11-dehydrocorticosterone back to corticosterone by aortic rings; type: cell-based; settings: 24 hours, compared with nonsense oligomers
T5 construct: from tissue; host or cells: rat aortic rings (intact tissue, 24 h incubation)
Method: The effects of 11β-HSD1 and 11β-HSD2 antisense on the inter-conversion of ^3H-corticosterone and ^3H-11-dehydro-corticosterone by aortic rings was also determined. Rings (2-3 mm) obtained in a similar manner as those in the contraction studies, were incubated in 1 ml DMEM/F12 media containing 1% FBS at 37° C. under 95% O2-5% CO2 in 24-well culture plates. Rings were incubated for 24 hours with:
(ii) ^3H-11β-dehydro-corticosterone (10 nmol/L)±11β-HSD1 antisense (3 μmol/L); this experiment was performed in duplicate (n=10 aortic rings per well). Control groups were incubated with the appropriate nonsense oligomer. ^3H-corticosterone in the incubation medium after 24 hrs was then measured. In this experiment, aortic rings were also analyzed for ^3H-corticosterone content. Rings from duplicate incubations (total n=20) were blotted dry, pooled and homogenized in 50% methanol using a Polytron. The homogenates were then centrifuged, extracted as below using Sep-Paks and injected onto a HPLC system for analysis.
Incubation media was collected, ran through a Sep-Pak and eluted with 3 mls of methanol, the eluate was then dried under nitrogen and reconstituted in 500:1 methanol. The aortic rings were dried and weighed. […] Steroids were observed by monitoring radioactivity on-line with a Packard Radiomatic Flo-One/Beta Series A-500 counter connected to a Dell Optiflex 425 S/L computer. […]

[7] = molecular target: T2, 11β-HSD1 Reductase; test: 11β-HSD1 reductase assay in rat Leydig cell homogenates; settings: for inhibitors of 11β-HSD1 reductase (summary in words): summary of the screening; for Leydig Cell 11β-HSD1 Reductase [S]= 600 nM: rat Leydig cell homogenates, 600 nM 11-dehydro-corticosterone;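 on all read-outs here: rat Leydig cell homogenate incubated 20 min at 37 °C, pH 7.4, with tritiated 11-dehydro-corticosterone and 3 mM NADPH, product measured by HPLC, inhibition from triplicate dose–response curves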
Method: (§1) Each enzyme reaction (described below) was stopped by adding 750 μL MeOH. After centrifugation, an aliquot of supernatant was analyzed by HPLC using a DuPont Zorbax C8 column.
(§2) 11β-HSD1 dehydrogenase was assayed by incubating homogenates (13,000 cells equivalent) with 600 nM [^3H]-B (0.5 μCi) in the presence of 3 mM NADP, 50 mM Tris-HCl; pH 8.4 at 37° C. for 10 minutes in a total volume of 250 μL. 11β-HSD1 reductase was assayed by incubating homogenates (52,000 cells equivalent) with 600 nM [^3H]-11-dehydro-corticosterone in presence of 3 mM NADPH, 50 mM Tris-HCl; pH 7.4 at 37° C. for 20 minutes in a total volume of 250 μL.
(§3) Each concentration was tested in triplicate and the dose response curve, showing percentage inhibition versus log concentration of steroid was plotted. The data fitted a log-linear straight line.

[8] = molecular target: T3, 11β-HSD1 Dehydrogenase; test: 11β-HSD1 dehydrogenase assay in rat Leydig cell homogenates; type: biochemical; set-up: Freshly prepared rat Leydig cell homogenates were chosen since they provide a rich and reliable source of both 11β-HSD1 dehydrogenase and reductase; from tissue; host or cells: rat testicular Leydig cells, homogenate; settings: for Leydig Cell 11β-HSDl Dehydrogenase [S] = 600 nM: progesterone and androgen derivatives; for inhibitors of 11β-HSD1 dehydrogenase (summary in words): summary of the screening;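 on all read-outs here: tritiated corticosterone conversion by 11β-HSD1 dehydrogenase in Leydig homogenates with 3 mM NADP at pH 8.4, 37 °C for 10 min, products resolved by HPLC, inhibition relative to uninhibited enzyme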
Method: as §1, §2, §3

[9] = rat Leydig cell homogenates, 600 nM corticosterone
[10] = 11β-HSD2, sheep kidney microsomes, 50 nM corticosterone, NAD+, aldosterone, cortisol, corticosterone series, read-out: Dehydrogenase [S] = 50 nM
[11] = rat Leydig cell homogenates, 600 nM corticosterone, NADP, corticosteroid series, read-out: Leydig Cell 11β-HSD1 Dehydrogenase [S]= 600 nM

T3 sequence (P16232 whole entry): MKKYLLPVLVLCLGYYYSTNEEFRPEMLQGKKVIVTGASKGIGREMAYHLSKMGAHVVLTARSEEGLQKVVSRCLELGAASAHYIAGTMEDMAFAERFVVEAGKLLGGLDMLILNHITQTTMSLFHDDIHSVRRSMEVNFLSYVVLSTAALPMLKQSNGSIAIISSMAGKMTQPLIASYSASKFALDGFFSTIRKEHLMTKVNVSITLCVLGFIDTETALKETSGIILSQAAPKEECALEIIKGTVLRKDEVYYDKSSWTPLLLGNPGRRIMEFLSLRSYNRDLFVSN
T2 sequence (P16232 whole entry): as above
T5 sequence (P16232 whole entry): as above

SMILES	pIC50 [1]	11β-HSD1 Reductase [2]	11β-HSD1 Dehydrogenase [3]	11β-HSD2 Dehydrogenase [4]	pIC50 [7]	pIC50 [8]	Leydig Cell 11β-HSDl Dehydrogenase [S] = 600 nM [8, 9]	inhibitors of 11β-HSD2 (summary in words) [1]	pIC50 [1, 10]	pIC50 [8, 11]	inhibitors of 11β-HSD1 dehydrogenase (summary in words) [8]	further results
CC(=O)[C@H]1CC[C@@H]2[C@@H]3CCC4=CC(=O)CC[C@]4(C)[C@@H]3C(=O)C[C@]12C (stereo in doubt) [11 -Keto-Progesterone, 4-Pregnen-3,11,20-trione]	6.40	Selective Inhibitor	No Inhibition	Potent Inhibitor	5.02	< 4.00	inactive					inhibitors of 11β-HSD2 (summary in words) ([1]; listed as 11-keto-progesterone): potent inhibitors; also recorded: high potency; effect on the ability of 11-dehydro-corticosterone to amplify the contractile response to phenylephrine ([5]; 11-dehydro-corticosterone 100 nmol/L, 24 h, antisense 3 μmol/L vs nonsense): diminished; production of 3H-corticosterone from 3H-11-dehydrocorticosterone [6]: decreased the metabolism; inhibitors of 11β-HSD1 reductase (summary in words) ([7]; listed as 11-Keto-Progesterone): potent inhibitors; inhibitors of 11β-HSD1 reductase (summary in words) ([7]; listed as 11-keto-progesterone): high potency
C[C@]12CCC(=O)C=C1CC[C@@H]1[C@H]2C(=O)C[C@]2(C)C(=O)CC[C@H]12 (stereo in doubt) [11 -Keto-Androstenedione, 4-Androsten-11,3,17-trione]	< 5.00	Selective Inhibitor	No Inhibition	No Inhibition	4.68	< 4.00	inactive					Sheep kidney 11β-HSD2 [S] = 50 nM ([1]; sheep kidney microsomes, corticosterone substrate, progesterone and androgen derivatives): inactive
C[C@]12CC(=O)[C@@H]3[C@@H](CCC4=CC(=O)CC[C@@]43C)[C@H]1CC[C@@H]2O [11 -Keto-Testosterone, 4-Androsten-17β-ol-11,3-dione]	5.87	Selective Inhibitor	No Inhibition	No Inhibition	4.74	< 4.00	inactive	potent inhibitors; also recorded: high potency				
C[C@]12CC(=O)[C@H]3[C@@H](CCC4=CC(=O)CC[C@@]43C)[C@@H]1CC[C@@H]2C(=O)CO [11-dehydro-corticosterone]								potent inhibitors; also recorded: high potency	6.33	< 4.00		amplification of the contractile response to phenylephrine by the steroid [5]: amplified the contractile response
C[C@]12C[C@H](O)[C@@H]3[C@@H](CCC4=CC(=O)CC[C@@]43C)[C@H]1CC[C@@H]2O [11β-OH-Testosterone, 4-Androsten-11β,17β-diol-3-one]	6.46	No Inhibition	Inhibitor (Non-Selective)	Inhibitor (Non-Selective)	< 4.00	5.05					potent inhibitors	inhibitors of 11β-HSD2 (summary in words) ([1]; listed as 11β-OH-testosterone): potent inhibitors; also recorded: high potency; Leydig Cell 11β-HSD1 Reductase [S]= 600 nM ([7]; progesterone and androgen derivatives): inactive; inhibitors of 11β-HSD1 dehydrogenase (summary in words) ([8]; listed as 11β-OH-testosterone): high potency; inhibitors of 11β-HSD1 dehydrogenase (summary in words) ([8]; listed as 11β-hydroxy-testosterone): potently inhibit
C[C@]12CC[C@@H](O)C[C@H]1CC[C@@H]1[C@H]2C(=O)C[C@]2(C)[C@@H](C(=O)CO)CC[C@@H]12 [3α,5α-TH-11-dehydrocorticosterone, 5α-Pregnan-3α,21-diol-11,20-dione]		Potent Inhibitor	No Inhibition	Potent Inhibitor	6.15			potent inhibitors; also recorded: high potency	6.10	5.10		inhibitors of 11β-HSD1 reductase (summary in words) [7]: potent inhibitors; also recorded: high potency
C[C@]12CC[C@@H](O)C[C@H]1CC[C@@H]1[C@H]2[C@@H](O)C[C@]2(C)[C@@H](C(=O)CO)CC[C@@H]12 [3α,5α-TH-Corticosterone, 5α-Pregnan-3α,11β,21-triol-20-one]		No Inhibition	Potent Inhibitor	Potent Inhibitor				potent inhibitors; also recorded: high potency	6.59	5.89	potent inhibitors; also recorded: high potency	Leydig Cell 11β-HSD1 Reductase [S]= 600 nM ([7]; NADPH, corticosteroid series): weak inhibitor
C[C@]12C[C@H](O)[C@H]3[C@@H](CCC4=CC(=O)CC[C@@]43C)[C@@H]1CC[C@@H]2C(=O)CO [corticosterone, reference compound]												amplification of the contractile response to phenylephrine by the steroid [5]: amplified contractile responses
C[C@]12CCC(=O)C[C@H]1CC[C@@H]1[C@H]2[C@@H](O)C[C@]2(C)[C@@H](C(=O)CO)CC[C@@H]12 [5α-DH-Corticosterone, 5α-Pregnan-11β,-21-diol-3,20-dione]	6.82	No inhibition	Potent Inhibitor	Potent Inhibitor	5.20	5.68		potent inhibitors; also recorded: high potency			potent inhibitors; also recorded: high potency	
